Test results published in publication PMC8201054, “A Novel Benzopyrane Derivative Targeting Cancer Cell Metabolic and Survival Pathways” (Cancers, 2021).

Tests used:
[1] = target: T1, inositol-3-phosphate synthase (Homo sapiens, UniProt Q9NPH2); experiment: DARTS proteomics in HEK293T lysate ([…]); type: cell-based
T1 construct: gene ISYNA1
T1 sequence (Q9NPH2 1-558): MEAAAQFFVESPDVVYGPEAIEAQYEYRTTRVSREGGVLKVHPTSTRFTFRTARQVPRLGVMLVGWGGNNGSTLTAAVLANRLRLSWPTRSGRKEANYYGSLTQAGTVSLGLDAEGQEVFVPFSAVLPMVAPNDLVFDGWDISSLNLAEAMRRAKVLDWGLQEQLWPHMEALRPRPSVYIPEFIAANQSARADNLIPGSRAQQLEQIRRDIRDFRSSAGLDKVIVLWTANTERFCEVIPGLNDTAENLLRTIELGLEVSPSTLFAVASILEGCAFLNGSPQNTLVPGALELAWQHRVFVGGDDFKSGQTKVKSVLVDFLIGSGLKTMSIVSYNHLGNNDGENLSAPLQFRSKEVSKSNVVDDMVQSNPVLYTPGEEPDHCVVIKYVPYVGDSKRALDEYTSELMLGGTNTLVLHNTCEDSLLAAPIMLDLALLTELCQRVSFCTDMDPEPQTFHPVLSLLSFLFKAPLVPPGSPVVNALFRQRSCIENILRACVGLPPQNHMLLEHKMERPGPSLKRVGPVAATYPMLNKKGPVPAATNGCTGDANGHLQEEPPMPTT

[2] = target: T2, thioredoxin reductase 1 (TrxR) (Homo sapiens, UniProt Q16881); experiment: DARTS proteomics in HEK293T lysate; TrxR activity assay in lysates of treated HCT116 cells; type: cell-based
T2 construct: gene TXNRD1
T2 sequence (Q16881 1-649): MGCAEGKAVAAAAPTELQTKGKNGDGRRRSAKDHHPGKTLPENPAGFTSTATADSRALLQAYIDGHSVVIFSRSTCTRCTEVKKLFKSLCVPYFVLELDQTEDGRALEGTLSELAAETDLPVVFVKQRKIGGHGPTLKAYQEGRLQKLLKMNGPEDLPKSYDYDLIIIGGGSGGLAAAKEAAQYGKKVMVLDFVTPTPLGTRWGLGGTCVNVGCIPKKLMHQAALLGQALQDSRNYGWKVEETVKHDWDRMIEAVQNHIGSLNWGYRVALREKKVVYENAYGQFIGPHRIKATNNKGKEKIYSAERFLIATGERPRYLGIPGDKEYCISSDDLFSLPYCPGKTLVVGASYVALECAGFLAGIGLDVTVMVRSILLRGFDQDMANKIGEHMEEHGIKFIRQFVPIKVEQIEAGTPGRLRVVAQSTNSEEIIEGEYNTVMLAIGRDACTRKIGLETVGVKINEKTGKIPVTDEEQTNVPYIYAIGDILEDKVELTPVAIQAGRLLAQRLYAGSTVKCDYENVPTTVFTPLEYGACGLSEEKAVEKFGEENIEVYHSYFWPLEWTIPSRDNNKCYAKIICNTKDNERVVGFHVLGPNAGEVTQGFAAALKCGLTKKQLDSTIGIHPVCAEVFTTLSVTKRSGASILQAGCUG

IC50 [2]: 2.42 µM
Compound: CC1(C)[C@H]2COc3ccc4ccccc4c3[C@H]2N=C2SC(c3ccccc3)=C(c3ccccc3)N21 [SIMR1281, (8aS,14aS)-9,9-dimethyl-11,12-diphenyl-8a,14a-dihydro-8H,9H-benzo[5, 6]chromeno[4,3-d]thiazolo[3,2-a]pyrimidine]
DARTS proteomics in HEK293T lysate (0.01-1 μM) [1]: SIMR1281 has shown a concentration-dependent affinity toward the inositol-3-phosphate synthase enzyme in the DARTS proteomic assay
